Read-outs that look alike come from different tables or passages of the source.
Tests used:
Neuro2A cells = experiment: Inhibition of ROS production in Neuro2A cells (H2O2-induced, DCFH-DA fluorescence); type: cell-based; conditions: for Inhibition of ROS production in neuro 2A cells, 5 μM (inhibition) / inhibition at 5 µM: compound 5 μM; for Inhibition of ROS production in neuro 2A cells, 10 μM (inhibition) / inhibition at 10 µM: compound 10 μM; for inhibition at 5 µM / inhibition at 10 µM: Mus musculus, N2a; for inhibition at 5 µM: ROS induced with 0.2 mM H2O2, read-out: Inhibition of ROS production in neuro 2A cells, 5 μM (inhibition); for inhibition at 10 µM: ROS induced with 0.2 mM H2O2, read-out: Inhibition of ROS production in neuro 2A cells, 10 μM (inhibition)
Procedure: The experiments carried out to evaluate the inhibition of ROS production using the compounds of the invention were based on the method reported by Danli W. and Patricia Yotnda in Production and Detection of Reactive Oxygen Species (ROS) in Cancers, J. Vis Exp. 2011; (57):3357.
Cultured brain Neuroblastoma2A (Neuro2A) were used.
15.000 Cells were plated in a 96 well plate with black walls and transparent flat bottom in 100 μL of DMEM complete medium (including 10% fetal bovine serum, […] L-Glutamine) containing compounds at indicated concentrations or 0.5% dimethylsulfoxide (DMSO), and kept overnight at 37° C. to allow them to attach to the plate. The following day the culture medium was removed, cells were washed with 100 μl of Phosphate Buffer Saline, pH 7.4 (PBS) and loaded with 100 μL of PBS containing 10 μM of dichloro-dihydro-fluorescein diacetate (DCFH-DA) and compounds at the indicated concentrations (or DMSO 0.5%) for additional 45 min at 37° C. DCFH-DA was prepared as a 20 mM stock in (DMSO) and kept in the dark at 4° C.
ROS production was induced by exposure with 0.2 mM H2O2 dissolved in 100 μl of complete DMEM medium without phenol red. Fluorescence intensity was measured at an […] wavelengths of 485/535 nm and ROS production was monitored for 2 h, at 37° C.

human NAAA = target: T1, human NAAA (Homo sapiens, UniProt Q02083); experiment: In vitro human NAAA fluorogenic assay; type: biochemical; conditions: enzyme-enriched lysate of HEK-293 cells stably transfected with human NAAA
T1 construct: expressed in transfected cells; host or cells: HEK-293 (stably transfected, G418 selection); enzyme-enriched lysate
T1 sequence (Q02083 126-359 limits assumed): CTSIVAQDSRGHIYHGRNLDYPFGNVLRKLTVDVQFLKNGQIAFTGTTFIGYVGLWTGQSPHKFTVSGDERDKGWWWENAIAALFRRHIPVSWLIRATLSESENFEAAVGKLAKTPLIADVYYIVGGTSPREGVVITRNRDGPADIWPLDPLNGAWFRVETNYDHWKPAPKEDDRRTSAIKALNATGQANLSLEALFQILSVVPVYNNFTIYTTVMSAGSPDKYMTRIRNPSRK
T1 sequence (Q02083 29-125 limits assumed): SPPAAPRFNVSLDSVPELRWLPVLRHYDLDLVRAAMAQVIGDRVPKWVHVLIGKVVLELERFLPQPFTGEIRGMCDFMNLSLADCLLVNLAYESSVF
Procedure: Human recombinant proteins were obtained from HEK-293 stable overexpressing NAAA cell lines. Cells were grown in Dulbecco's modified Eagle medium (DMEM) containing 10% FBS, 1% penicillin/streptomycin, 1% glutamine and 500 μg/mL G418. To obtain membrane preparation cells were scraped off with cold phosphate-buffered saline (PBS) and collected by centrifugation (300×g, 7 min, 4° C.). Cell pellet were stored at −80° C. until protein preparation.
In Vitro Human NAAA Assay
Preparation of Enzyme-Enriched Lysate (h-NAAA).
HEK-293 cells stably transfected with the human NAAA coding sequences were used as enzyme source. Cell pellets were suspended in 20 mM Tris HCl (pH 7.4) with 0.32 M sucrose, sonicated and centrifuged at 800×g for 30 min at 4° C. Supernatants were then ultracentrifuged at 12,000×g for 30 min at 4° C. Pellets were re-suspended in PBS buffer (pH 7.4) and subjected to three freeze-thaw cycles at −80° C. The suspension was finally ultracentrifuged at 105,000×g for 1 h at 4° C., supematants were collected, protein concentration was measured and samples aliquoted and stored at −80° C. until use.
The results are summarized in Table 3 as follows, wherein +: IC50>2 μM; ++: 1.0 μM<IC50<2 μM; +++: IC50<1 μM: […]

[1] = read-out: Activity h-NAAA Fluorogenic assay

Compound | IC50 (human NAAA; [1]) | also measured
CCCCc1ccc(OC2CC3CCC(C2)N3S(=O)(=O)c2c(C)n[nH]c2C)cc1 [Example 03, (1R,3s,5S)-3-(4-Butylphenoxy)-8-[(3,5-dimethyl-1H-pyrazol-4-yl)sulfonyl]-8-azabicyclo[3.2.1]octane] |  | Inhibition of ROS production in neuro 2A cells, 5 μM (inhibition) (Neuro2A cells; ROS induced with 0.2 mM H2O2): 39%; Inhibition of ROS production in neuro 2A cells, 10 μM (inhibition) (Neuro2A cells; ROS induced with 0.2 mM H2O2): 136%; IC50 (human NAAA; Activity h-NAAA Fluorogenic assay): > 2 µM
Cc1n[nH]c(C)c1S(=O)(=O)N1C2CCC1CC(Oc1ccc(C#N)cc1)C2 [Example 08, (1R,3r,5S)-3-(4-Cyanophenoxy)-8-[(3,5-dimethyl-1H-pyrazol-4-yl)sulfonyl]-8-azabicyclo[3.2.1]octane] | < 1 µM | Inhibition of ROS production in neuro 2A cells, 5 μM (inhibition) (Neuro2A cells; ROS induced with 0.2 mM H2O2): 0%; Inhibition of ROS production in neuro 2A cells, 10 μM (inhibition) (Neuro2A cells; ROS induced with 0.2 mM H2O2): 77%
Cc1n[nH]c(C)c1S(=O)(=O)N1C2CCC1CC(Oc1ccc(C#N)cc1)C2 [Example 09, (1R,3s,5S)-3-(4-Cyanophenoxy)-8-[(3,5-dimethyl-1H-pyrazol-4-yl)sulfonyl]-8-azabicyclo[3.2.1]octane] | > 2 µM | Inhibition of ROS production in neuro 2A cells, 5 μM (inhibition) (Neuro2A cells; ROS induced with 0.2 mM H2O2): 35%; Inhibition of ROS production in neuro 2A cells, 10 μM (inhibition) (Neuro2A cells; ROS induced with 0.2 mM H2O2): 56%
CCCCc1ccc(OC2CC3CCC(C2)N3S(=O)(=O)c2c(C)noc2C)cc1 [Example 15, 4-[[(1R,3r,5S)-3-(4-Butylphenoxy)-8-azabicyclo[3.2.1]octan-8-yl]sulfonyl]-3,5-dimethyl-isoxazole] | > 2 µM | inhibition at 5 µM (Neuro2A cells): 0%; inhibition at 10 µM (Neuro2A cells): 84%
Cc1n[nH]c(C)c1S(=O)(=O)N1C2CCC1CC(Oc1cccnn1)C2 [Example 37, (1R,3r,5S)-8-[(3,5-Dimethyl-1H-pyrazol-4-yl)sulfonyl]-3-pyridazin-3-yloxy-8-azabicyclo[3.2.1]octane] | > 2 µM | 
Cc1ccc2oc(OC3CC4CCC(C3)N4S(=O)(=O)c3c(C)n[nH]c3C)nc2c1 [Example 38, (1R,3r,5S)-8-[(3,5-Dimethyl-1H-pyrazol-4-yl)sulfonyl]-3-(2-(5-methyl)-benzoxazoloxy)-8-azabicyclo[3.2.1]octane] | < 1 µM | 
Cc1n[nH]c(C)c1S(=O)(=O)N1C2CCC1CC(Oc1ccc(Cl)cc1)C2 [Example 39, (1R,3r,5S)-3-(4-Chloro-phenoxy)-8-[(3,5-dimethyl-1H-pyrazol-4-yl)sulfonyl]-8-azabicyclo[3.2.1]octane] | < 1 µM | 
CCCCc1cnc(OC2CC3CCC(C2)N3S(=O)(=O)c2c(C)n[nH]c2C)cn1 [Example 40, (1R,3r,5S)-8-[(3,5-Dimethyl-1H-pyrazol-4-yl)sulfonyl]-3-[5-butylpyrazin-2-yl]oxy-8-azabicyclo[3.2.1]octane] | < 1 µM | inhibition at 5 µM (Neuro2A cells): 19%; inhibition at 10 µM (Neuro2A cells): 86%
CCOCc1cnc(OC2CC3CCC(C2)N3S(=O)(=O)c2c(C)n[nH]c2C)cn1 [Example 41, (1R,3r,5S)-8-[(3,5-Dimethyl-1H-pyrazol-4-yl)sulfonyl]-3-[5-(ethoxymethyl)pyrazin-2-yl]oxy-8-azabicyclo[3.2.1]octane] | < 1 µM | 
Cc1n[nH]c(C)c1S(=O)(=O)N1C2CCC1CC(Oc1ccc(F)cc1)C2 [Example 42, (1R,3r,5S)-3-(4-Fluoro-phenoxy)-8-[(3,5-dimethyl-1H-pyrazol-4-yl)sulfonyl]-8-azabicyclo[3.2.1]octane] | < 1 µM | 
Cc1n[nH]c(C)c1S(=O)(=O)N1[C@@H]2CC[C@H]1C[C@H](Oc1cccnn1)C2 [Example 43, (1R,3s,5S)-8-[(3,5-Dimethyl-1H-pyrazol-4-yl)sulfonyl]-3-pyridazin-3-yloxy-8-azabicyclo[3.2.1]octane] | > 2 µM | 
Cc1n[nH]c(C)c1S(=O)(=O)N1C2CCCC1CC(Oc1cnccn1)C2 [Example 44, (1R,3r,5S)-9-[(3,5-Dimethyl-1H-pyrazol-4-yl)sulfonyl]-3-(pyrazin-2-yloxy)-9-azabicyclo[3.3.1]nonane] | < 1 µM | 
Cc1n[nH]c(C)c1S(=O)(=O)N1C2CCCC1CC(Oc1cnccn1)C2 [Example 45, (1R,3s,5S)-9-[(3,5-Dimethyl-1H-pyrazol-4-yl)sulfonyl]-3-(pyrazin-2-yloxy)-9-azabicyclo[3.3.1]nonane] | > 2 µM | 
Cc1n[nH]c(C)c1S(=O)(=O)N1C2COCC1CC(Oc1cnccn1)C2 [Example 46, (1R,3s,5S)-9-[(3,5-Dimethyl-1H-pyrazol-4-yl)sulfonyl]-7-pyrazin-2-yloxy-3-oxa-9-azabicyclo[3.3.1]nonane] | > 2 µM | 
Cc1n[nH]c(C)c1S(=O)(=O)N1C2COCC1CC(Oc1cnccn1)C2 [Example 47, (1R,3r,5S)-9-[(3,5-Dimethyl-1H-pyrazol-4-yl)sulfonyl]-7-pyrazin-2-yloxy-3-oxa-9-azabicyclo[3.3.1]nonane] | > 2 µM | 
Cc1n[nH]c(C)c1S(=O)(=O)N1C[C@H]2COC[C@@H](C1)[C@H]2Oc1cnccn1 [Example 48, (1R,5S,9r)-7-((3,5-Dimethyl-1H-pyrazol-4-yl)sulfonyl)-9-(pyrazin-2-yloxy)-3-oxa-7-azabicyclo[3.3.1]nonane] | > 2 µM | 
Cc1n[nH]c(C)c1S(=O)(=O)N1C[C@H]2COC[C@@H](C1)C2Oc1cnccn1 (stereo partly drawn) [Example 49, (1R,5S,9s)-7-((3,5-Dimethyl-1H-pyrazol-4-yl)sulfonyl)-9-(pyrazin-2-yloxy)-3-oxa-7-azabicyclo[3.3.1]nonane] | > 2 µM | 
Cc1n[nH]c(C)c1S(=O)(=O)N1C[C@H]2CC[C@@H](C1)C2Oc1cnccn1 (stereo partly drawn) [Example 50, (1R,5S,8r)-3-((3,5-Dimethyl-1H-pyrazol-4-yl)sulfonyl)-8-(pyrazin-2-yloxy)-3-azabicyclo[3.2.1]octane] | > 2 µM | 
Cc1n[nH]c(C)c1S(=O)(=O)N1C[C@H]2CCC[C@@H](C1)[C@H]2Oc1cnccn1 [Example 51, (1R,5S,9r)-3-((3,5-Dimethyl-1H-pyrazol-4-yl)sulfonyl)-9-(pyrazin-2-yloxy)-3-azabicyclo[3.3.1]nonane] | > 2 µM | Inhibition of ROS production in neuro 2A cells, 5 μM (inhibition) (Neuro2A cells; ROS induced with 0.2 mM H2O2): 0%; Inhibition of ROS production in neuro 2A cells, 10 μM (inhibition) (Neuro2A cells; ROS induced with 0.2 mM H2O2): 21%
Cc1n[nH]c(C)c1S(=O)(=O)N1C[C@H]2CCC[C@@H](C1)[C@@H]2Oc1cnccn1 [Example 52, (1R,5S,9s)-3-((3,5-Dimethyl-1H-pyrazol-4-yl)sulfonyl)-9-(pyrazin-2-yloxy)-3-azabicyclo[3.3.1]nonane] | < 1 µM | Inhibition of ROS production in neuro 2A cells, 5 μM (inhibition) (Neuro2A cells; ROS induced with 0.2 mM H2O2): 9%; Inhibition of ROS production in neuro 2A cells, 10 μM (inhibition) (Neuro2A cells; ROS induced with 0.2 mM H2O2): 27%
Cc1ccc(OC2CC3CCC(C2)N3S(=O)(=O)c2c(C)n[nH]c2C)nn1 [Example 53, (1R,3r,5S)-8-[(3,5-Dimethyl-1H-pyrazol-4-yl)sulfonyl]-3-(6-methylpyridazin-3-yl)oxy-8-azabicyclo[3.2.1]octane] | > 2 µM | 
O=C(/C=C/c1ccc(O)c2c1[C@H](C(=O)O[C@H](Cc1ccc(O)c(O)c1)C(=O)O)[C@@H](c1ccc(O)c(O)c1)O2)O[C@H](Cc1ccc(O)c(O)c1)C(=O)O [Salvianolic Acid B, Salvianolic acid B, reference compound] |  | Inhibition of ROS production in neuro 2A cells (inhibition), reference at 100 μM (Neuro2A cells; reference compound 100 μM, ROS induced with 0.2 mM H2O2): 100%
(1R,3r,5S)-3-(4-Hexylphenoxy)-8-[(3,5-dimethyl-1H-pyrazol-4-yl)sulfonyl]-8-azabicyclo[3.2.1]octane [Example 19] | < 1 µM | 
